Structures are written as SMILES.

This note sets out measurements from patent US7429474B2, “2-O sulfatase compositions and methods of analyzing therewith” (Massachusetts Institute of Technology, priority 2003, dated 2008).

The test system of the assay is Δ 4,5 glycuronidase. Description: Δ 4,5 glycuronidase activity (loss of UV absorption at 232 nm). It counts as biochemical, F. heparinum. Conditions: 2 mM substrate, 250 nM Δ 4,5 enzyme alone, 30° C. The method, then: The substrate-product relationship between the two enzymes was examined by directly measuring Δ 4,5 glycuronidase activity either before or following the addition of recombinant 2-O sulfatase. Reactions were carried out at 30° C. and included 50 mM MES, pH 6.5, 100 mM NaCl, and 2 mM ΔU2SHNS in a 100 μL reaction volume. In these experiments, 250 nM Δ 4,5 glycuronidase and 25 nM 2-O ΔN^1-24 were sequentially added as follows: Δ 4,5 alone, Δ 4,5 followed by 2-O sulfatase, or 2-O sulfatase followed by Δ 4,5.
We hypothesized that, an obligatory substrate-product relationship between the 2-O sulfatase and the Δ 4,5 glycuronidase may exist. We examined a possible kinetic relationship between these two enzymes by looking at their sequential action (FIG. 7). In this experiment, Δ 4,5 glycuronidase activity was measured directly either […] or following the addition of the recombinant 2-O sulfatase using the disaccharide substrate ΔU2SHNS. […] In the reciprocal experiment (i.e., whereby the 2-O sulfatase was added second), we observed an initial lag in Δ 4,5 activity. This lag was followed by a linear Δ 4,5 activity, albeit at a slower rate than in the case where the 2-O sulfatase was added first. The observed delay in activity was presumably due to the prerequisite 2-O desulfation of the substrate which must occur prior to being acted on by the glycuronidase.

Regarding `O=C(O)C1=C[C@H](O)[C@@H](OS(=O)(=O)O)[C@H](O[C@H]2[C@H](O)[C@@H](NS(=O)(=O)O)C(O)O[C@@H]2CO)O1` (stereo partly shown) [ΔU2SHNS], the glycuronidase-mediated hydrolysis entry is “completely refractory”.
